Data taken from US8697641B2, “4-amino-4-oxobutanoyl peptide cyclic analogues, inhibitors of viral replication” (Achillion Pharmaceuticals, Inc., priority 2008, dated 2014).

Test system: Hepatitis C replicon
Experiment: HCV replicon assay (NPT ELISA readout) in Huh-7 replicon-containing cells
Format: cell-based, Hepatitis C virus
Conditions: Hepatitis C virus, 72 h; HCV replicon in Huh-7 cells, three days incubation
How it was run: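 Huh-7 cells carrying a neo-containing HCV subgenomic replicon (NS3-NS5B) were plated overnight, then exposed to compound (generally 6 concentrations, 10 to 0.03 μM) for three days at 37 °C. Replication was read as NPT level by captured ELISA; interferon alpha served as positive control.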

SMILES | EC50 [µM]
COc1ccc2c(O[C@@H]3C[C@H]4C(=O)N[C@]5(C(=O)NS(=O)(=O)C6CC6)C[C@H]5/C=C\CCCCC[C@H](CC(=O)N5CCCC5C(F)(F)F)C(=O)N4C3)cc(-c3ccccn3)nc2c1Cl (stereo partly drawn) [Compound 95, (2R,6R,14aR,16aS,Z)-2-(8-chloro-7-methoxy-2-(pyridin-2-yl)quinolin-4-yloxy)-N-(cyclopropylsulfonyl)-5,16-dioxo-6-(2-oxo-2-(2-(trifluoromethyl)pyrrolidin-1-yl)ethyl)-1,2,3,5,6,7,8,9,10,11, 13a,14,14a,15,16,16a-hexadecahydrocyclopropa [e]pyrrolo[1,2-a][1,4] diazacyclopentadecine-14a-carboxamide] | < 1
COc1ccc2nc(-c3ccccn3)cc(C(=O)N[C@@H]3C[C@H]4C(=O)N[C@]5(C(=O)NS(=O)(=O)C6CC6)C[C@H]5/C=C\CCCCC[C@H](CC(=O)N5CCCCC5)C(=O)N4C3)c2c1 [Compound 96, (2R,6R,14aR,16aS,Z)-N-(cyclopropylsulfonyl)-2-(6-methoxy-2-(pyridin-2-yl)quinoline-4-carboxamido)-5,16-dioxo-6-(2-oxo-2-(piperidin-1-yl)ethyl)-1,2,3,5,6,7,8,9,10,11, 13a,14,14a,15,16,16a-hexadecahydrocyclopropa [e]pyrrolo[1,2-a][1,4] diazacyclopentadecine-14a-carboxamide] | < 1
COc1ccc2nc(-c3ccccn3)cc(C(=O)N[C@@H]3C[C@H]4C(=O)N[C@]5(C(=O)NS(=O)(=O)C6CC6)C[C@H]5/C=C\CCCCC[C@H](CC(=O)N5CCC(F)(F)CC5)C(=O)N4C3)c2c1 [Compound 97, (2R,6R,14aR,16aS,Z)-N-(cyclopropylsulfonyl)-6-(2-(4,4-difluoropiperidin-1-yl)-2-oxoethyl)-2-(6-methoxy-2-(pyridin-2-yl)quinoline-4-carboxamido)-5,16-dioxo-1,2,3,5,6,7,8,9,10,11, 13a,14,14a,15,16,16a-hexadecahydrocyclopropa [e]pyrrolo[1,2-a][1,4] diazacyclopentadecine-14a-carboxamide] | < 1
COc1ccc2nc(-c3ccccn3)cc(C(=O)N[C@@H]3C[C@H]4C(=O)N[C@]5(C(=O)NS(=O)(=O)C6CC6)C[C@H]5/C=C\CCCCC[C@H](CC(=O)N5CCC(F)(F)C5)C(=O)N4C3)c2c1 [Compound 98, (2R,6R,14aR,16aS,Z)-N-(cyclopropylsulfonyl)-6-(2-(3,3-difluoropyrrolidin-1-yl)-2-oxoethyl)-2-(6-methoxy-2-(pyridin-2-yl)quinoline-4-carboxamido)-5,16-dioxo-1,2,3,5,6,7,8,9,10,11, 13a,14,14a,15,16,16a-hexadecahydrocyclopropa [e]pyrrolo[1,2-a][1,4] diazacyclopentadecine-14a-carboxamide] | < 1
COc1ccc2c(O[C@@H]3C[C@H]4C(=O)N[C@]5(C(=O)NS(=O)(=O)C6CC6)C[C@H]5/C=C\CCCCC[C@H](CC(=O)N5[C@H](C)CCC[C@@H]5C)C(=O)N4C3)cc(-c3ccccc3)nc2c1 [Compound 99, (2R,6R,14aR,16aS,Z)-N-(cyclopropylsulfonyl)-6-(2-((2R,6S)-2,6-dimethylpiperidin-1-yl)-2-oxoethyl)-2-(7-methoxy-2-phenylquinolin-4-yloxy)-5,16-dioxo-1,2,3,5,6,7,8,9,10,11, 13a,14,14a,15,16,16a-hexadecahydrocyclopropa [e]pyrrolo[1,2-a][1,4] diazacyclopentadecine-14a-carboxamide] | < 1
COc1ccc2c(O[C@@H]3C[C@H]4C(=O)N[C@]5(C(=O)NS(=O)(=O)C6CC6)C[C@H]5/C=C\CCCCC[C@H](CC(=O)N5CCCC(F)C5)C(=O)N4C3)cc(-c3ccccn3)nc2c1Cl (stereo partly drawn) [Compound 100, (2R,6R,14aR,16aS,Z)-2-(8-chloro-7-methoxy-2-(pyridin-2-yl)quinolin-4-yloxy)-N-(cyclopropylsulfonyl)-6-(2-(3-fluoropiperidin-1-yl)-2-oxoethyl)-5,16-dioxo-1,2,3,5,6,7,8,9,10,11, 13a,14,14a,15,16,16a-hexadecahydrocyclopropa [e]pyrrolo[1,2-a][1,4] diazacyclopentadecine-14a-carboxamide] | < 1
COc1ccc2c(O[C@@H]3C[C@H]4C(=O)N[C@]5(C(=O)NS(=O)(=O)C6CC6)C[C@H]5/C=C\CCCCC[C@H](CC(=O)N5CCC(F)CC5)C(=O)N4C3)cc(-c3ccccn3)nc2c1Cl [Compound 101, (2R,6R,14aR,16aS,Z)-2-(8-chloro-7-methoxy-2-(pyridin-2-yl)quinolin-4-yloxy)-N-(cyclopropylsulfonyl)-6-(2-(4-fluoropiperidin-1-yl)-2-oxoethyl)-5,16-dioxo-1,2,3,5,6,7,8,9,10,11, 13a,14,14a,15,16,16a-hexadecahydrocyclopropa [e]pyrrolo[1,2-a][1,4] diazacyclopentadecine-14a-carboxamide] | < 1
COc1ccc2c(O[C@@H]3C[C@H]4C(=O)N[C@]5(C(=O)NS(=O)(=O)C6CC6)C[C@H]5/C=C\CCCCC[C@H](CC(=O)N5CC[C@H](N)C5)C(=O)N4C3)cc(-c3ccccc3)nc2c1 [Compound 102, (2R,6R,14aR,16aS, Z)-6-(2-((S)-3-aminopyrrolidin-1-yl)-2-oxoethyl)-N-(cyclopropylsulfonyl)-2-(7-methoxy-2-phenylquinolin-4-yloxy)-5,16-dioxo-1,2,3,5,6,7,8,9,10,11, 13a,14,14a,15,16,16a-hexadecahydrocyclopropa [e]pyrrolo[1,2-a][1,4] diazacyclopentadecine-14a-carboxamide] | < 1
COc1ccc2c(O[C@@H]3C[C@H]4C(=O)N[C@]5(C(=O)NS(=O)(=O)C6CC6)CC5/C=C\CCCCC[C@H](CC(=O)N5CC[C@@H](CNC(=O)OC(C)(C)C)C5)C(=O)N4C3)cc(-c3ccccc3)nc2c1 (stereo partly drawn) [Compound 103, tert-butyl ((3S)-1-(2-((2R,6R,14aR,16aS,Z)-14a-(cyclopropylsulfonyl-carbamoyl)-2-(7-methoxy-2-phenylquinolin-4-yloxy)-5,16-dioxo-1,2,3,5,6,7,8,9,10,11, 13a,14,14a,15,16,16a-hexadecahydrocyclopropa [e]pyrrolo[1,2-a][1,4]diazacyclopentadecin-6-yl)acetyl)pyrrolidin-3-yl)methylcarbamate] | < 1
COc1ccc2c(O[C@@H]3C[C@H]4C(=O)N[C@]5(C(=O)NS(=O)(=O)C6CC6)C[C@H]5/C=C\CCCCC[C@H](CC(=O)N5CC[C@@H](CN)C5)C(=O)N4C3)cc(-c3ccccc3)nc2c1 [Compound 105, (2R,6R,14aR,16aS, Z)-6-(2-((S)-3-(aminomethyl)pyrrolidin-1-yl)-2-oxoethyl)-N-(cyclopropylsulfonyl)-2-(7-methoxy-2-phenylquinolin-4-yloxy)-5,16-dioxo-1,2,3,5,6,7,8,9,10,11, 13a,14,14a,15,16,16a-hexadecahydrocyclopropa [e]pyrrolo[1,2-a][1,4] diazacyclopentadecine-14a-carboxamide] | < 1
COc1ccc2c(O[C@@H]3C[C@H]4C(=O)N[C@]5(C(=O)NS(=O)(=O)C6CC6)C[C@H]5/C=C\CCCCC[C@H](CC(=O)N5CC[C@@H](N)C5)C(=O)N4C3)cc(-c3ccccc3)nc2c1 [Compound 106, (2R,6R,14aR,16aS, Z)-6-(2-((R)-3-aminopyrrolidin-1-yl)-2-oxoethyl)-N-(cyclopropylsulfonyl)-2-(7-methoxy-2-phenylquinolin-4-yloxy)-5,16-dioxo-1,2,3,5,6,7,8,9,10,11, 13a,14,14a,15,16,16a-hexadecahydrocyclopropa [e]pyrrolo[1,2-a][1,4] diazacyclopentadecine-14a-carboxamide] | < 1
COc1ccc2c(O[C@@H]3C[C@H]4C(=O)N[C@]5(C(=O)NS(=O)(=O)C6CC6)C[C@H]5/C=C\CCCCC[C@H](CC(=O)N5CC[C@@H](C(C)(C)N)C5)C(=O)N4C3)cc(-c3ccccc3)nc2c1 [Compound 107, (2R,6R,14aR,16aS, Z)-6-(2-((R)-3-(2-aminopropan-2-yl)pyrrolidin-1-yl)-2-oxoethyl)-N-(cyclopropylsulfonyl)-2-(7-methoxy-2-phenylquinolin-4-yloxy)-5,16-dioxo-1,2,3,5,6,7,8,9,10,11, 13a,14,14a,15,16,16a-hexadecahydrocyclopropa [e]pyrrolo[1,2-a][1,4] diazacyclopentadecine-14a-carboxamide] | < 1
COc1ccc2c(O[C@@H]3C[C@H]4C(=O)N[C@]5(C(=O)NS(=O)(=O)C6CC6)C[C@H]5/C=C\CCCCC[C@H](CC(=O)N5CC[C@H](O)C5)C(=O)N4C3)cc(-c3ccccc3)nc2c1 [Compound 108, (2R,6R,14aR,16aS,Z)-N-(cyclopropylsulfonyl)-6-(2-((S)-3-hydroxypyrrolidin-1-yl)-2-oxoethyl)-2-(7-methoxy-2-phenylquinolin-4-yloxy)-5,16-dioxo-1,2,3,5,6,7,8,9,10,11, 13a,14,14a,15,16,16a-hexadecahydrocyclopropa [e]pyrrolo[1,2-a][1,4] diazacyclopentadecine-14a-carboxamide] | < 1
COc1ccc2c(O[C@@H]3C[C@H]4C(=O)N[C@]5(C(=O)NS(=O)(=O)C6CC6)C[C@H]5/C=C\CCCCC[C@H](CC(=O)N[C@@H]5CCNC5)C(=O)N4C3)cc(-c3ccccc3)nc2c1 [Compound 109, (2R,6R,14aR,16aS,Z)-N-(cyclopropylsulfonyl)-2-(7-methoxy-2-phenylquinolin-4-yloxy)-5,16-dioxo-6-(2-oxo-2-((R)-pyrrolidin-3-ylamino)ethyl)-1,2,3,5,6,7,8,9,10,11, 13a,14,14a,15,16,16a-hexadecahydrocyclopropa [e]pyrrolo[1,2-a][1,4] diazacyclopentadecine-14a-carboxamide] | < 1
